The text below walks through data of patent US11029285B2, “Real-time and quantitative measurement method for cell traction force” (HUNAN AGRICULTURAL UNIVERSITY, priority 2016, dated 2021).

Type in all cases: cell-based
The subject of experiment [1] is human umbilical vein endothelial cells. Kind of experiment: Double resonator QCM cell traction force of 50,000 HUVECs on bare gold electrodes under EGTA. From the text:
(§1) The steps for measuring the cell traction force by using bare gold electrode AT-cut and BT-cut quartz crystals are as follows:
(§2) 4) checking to make sure that the 8-channel QCM instrument QCA922 has crystal resonant frequency and dynamic resistance outputs, connecting detection cells in turn, determining that each detection cell (e.g., two AT-cut crystal detection cells, two BT-cut crystal detection cells) works, and starting the software to acquire data; 5) removing the sterilized water after the data corresponding to each channel is stable, cleaning twice with sterilized water, then cleaning with PBS, add 52 μL of DMEM medium containing fetal bovine serum, and acquiring QCM resonant frequency (f) and dynamic resistance (R) data for 2 h; adding 250 μL of medium containing a certain number (e.g., 20,000) of H9C2 rat cardiomyocytes or human umbilical vein endothelial cells (HUVECs), continuously acquiring f and R data for about 20 h. The QCM relative frequency shift Δf and dynamic resistance change ΔR of each channel caused by the adhesion of cells at different adhesion time are determined by subtracting the corresponding QCM stable values in media of the channel at the time (t). 6) After the experiment, collecting the medium, gently washing with PBS, adding trypsin for digestion, and counting the cells in the collected fraction with a cytometer; 7) Quantitatively measuring the dynamic change ΔS in the cell traction force during the cell adhesion process according to the frequency shifts Δft^AT and Δft^BT of the paired AT-cut and BT-cut quartz crystals at the time t: ΔSt=(KAT−KBT)^−1[tq^ATΔft^AT/fr^AT−tq^BTΔft^BT/fr^BT] (1),
in which, ΔSt is the traction force of cells at the adhesion time t; KAT=2.75×10^−12 cm^2 dyn^−1 and KBT=−2.65×10^−12 cm^2dyn^−1 are stress coefficients of the AT-cut and BT-cut quartz crystals of given crystal orientations, respectively, and are constants. fr^AT and fr^BT are the resonant frequencies of the AT-cut and BT-cut quartz crystals, respectively; tq^AT and tq^BT are the thicknesses of the AT-cut and BT-cut quartz crystals, respectively, and are constants. Therefore, the surface stress or traction force applied to the crystal by cells in the adhesion process or under the action of a drug can be quantitatively measured according to the frequency shifts Δft^AT, Δft^BT (in Hz) of the AT-cut crystal, the BT-cut crystal at any time t relative to its reference point (e.g., a stabile value in the medium or a stabile value before dosing) based on formula (1). The frequency of the quartz crystal is a digital signal, which can be easily, quickly and continuously acquired or measured by a frequency counting device or a QCM special instrument. […]

Experiment [2] has the same test system. Kind of experiment: Cell morphology simulation experiments under EGTA. The following applies: after the EGTA treatments for five minutes.
For experiment [3] the test system is unchanged. As to the kind of experiment: QCM response and cell traction force during adhesion of HUVECs to fibronectin modified gold electrodes. As for the experimental part:
(§3) The Steps for Measuring the Cell Traction Force with AT-Cut and BT-Cut Quartz Crystals Modified with Specific Cell Adhesion Molecules RGD and Fibronectin are as Follows:
(§4) 1) cleaning with anhydrous ethanol and Millipore water, and blowing AT-cut and BT-cut 9 MHz crystals with nitrogen;
2) dripping 1 drop of Piranha solution (80° C. 1:3 (v:v) 30% H2O2:H2SO4) to the quartz crystal gold electrode for treating 30 s, rinsing with Millipore water and anhydrous ethanol, blowing with nitrogen, and repeating 3 times. Dripping the anhydrous ethanol onto the electrode to stand for a few minutes, rinsing with sterile water, and blowing with nitrogen; 3) installing the surface treated AT-cut and BT-cut quartz crystals into Teflon well cells; 4) adding a mixed anhydrous ethanol solution of 20 mM 3-mercaptopropionic acid and 1 mM triethylene glycol mono-11-mercaptoundecyl ether to the Teflon cell at room temperature, and standing overnight in the dark; 5) taking out the solution, and rinsing with sterile water; adding a PBS buffer solution (pH=5.5) with 150 mM EDC and 30 mM NHS dissolved therein, and standing for about 30 min; 6) taking out the solution, and rinsing with PBS buffer solution (pH=5.5) and sterile water; adding a PBS solution of KRGD or fibronectin of different concentrations, and standing for 1-2 h (RGDK) or overnight (fibronectin); 7) taking out the solution, and rinsing with sterilized PBS and sterile water to obtain KRGD or fibronectin modified gold electrodes. Adding 20,000 HUVEC or H9C2 cells, and starting QCM for monitoring; 8) collecting the medium after the experiment, gently wash with PBS, adding trypsin for digestion, and measuring the cells in the collected fraction with a cytometer; and 9) Quantitatively estimating the dynamic change ΔS in the cell traction force during the cell adhesion process according to the frequency shifts Δft^AT and Δft^BT of the AT-cut and BT-cut quartz crystals modified with the same concentration of RGD or fibronectin at the time t based on formula (2).
However, as the adhesion time increases, the surface of the electrode may adsorb adherent factors beneficial to cell adhesion and extracellular matrix factors secreted by the cells, so that ΔS changes positively, and the cells are gradually spread and are finally close to the value of the cell traction force on the gold electrode modified at the low FN concentration (10 μg/mL).

Experiment [4] has the same test system. As to the kind of experiment: Double resonator QCM cell traction force of HUVECs on bare gold electrodes under thrombin or Y-27632. The following applies: 20,000 HUVECs on bare gold.
Text: as §1, §2
(§5) in which, ΔSt is the traction force of cells at the adhesion time t; KAT=2.75×10^−12 cm^2 dyn^−1 and KBT=−2.65×10^−12 cm^2dyn^−1 are stress coefficients of the AT-cut and BT-cut quartz crystals of given crystal orientations, respectively, and are constants. fr^AT and fr^BT are the resonant frequencies of the AT-cut and BT-cut quartz crystals, respectively; tq^AT and tq^BT are the thicknesses of the AT-cut and BT-cut quartz crystals, respectively, and are constants. Therefore, the surface stress or traction force applied to the crystal by cells in the adhesion process or under the action of a drug can be quantitatively measured according to the frequency shifts Δft^AT, Δft^BT (in Hz) of the AT-cut crystal, the BT-cut crystal at any time t relative to its reference point (e.g., a stabile value in the medium or a stabile value before dosing) based on formula (1). The frequency of the quartz crystal is a digital signal, which can be easily, quickly and continuously acquired or measured by a frequency counting device or a QCM special instrument. The crystal frequency used in the experiment of the present disclosure is 9 MHz, where tq^AT=0.0185 cm, and tq^BT=0.0282 cm. Thus, formula (1) can be simplified as: ΔSt=2.058×10^4(0.0185Δft^AT−0.0282Δft^BT) (2)
Experimental Steps for Effects for Vascular Endothelial Barrier Function Destruction Drug Thrombin and Protective Drug Y-27632 on Traction Force of Human Umbilical Vein Endothelial Cells
Take four Teflon well cells, two identical 9 MHz AT-cut gold electrode crystals and two identical 9 MHz BT-cut gold electrode crystals. Based on the aforementioned steps of measuring the cell traction force with bare gold electrode AT-cut and BT-cut quartz crystals, add 300 μL DMEM medium to the four Teflon cells respectively, and collect data for about 2 h; add 300 μL of mediums containing 20,000 human umbilical vein endothelial cells respectively, collect data for about 24 h, then add the drugs thrombin and Y-27632 to the final concentrations, and continue to collect data for about 24 h.

For experiment [5], the system named is H9C2 rat cardiomyocytes. As to the kind of experiment: Double resonator QCM (AT-cut/BT-cut) cell traction force of H9C2 rat cardiomyocytes under inotropic drugs. Conditions: 20,000 H9C2 cells on bare gold. The protocol:
as §1
1) dripping 1 drop of Piranha solution (80° C. 1:3 (v:v) 30% H2O2:H2SO4) to the center of each quartz crystal gold electrode for about 30 s, then rinsing with distilled water, drying with nitrogen, and repeating this step by 3 times;
2) assembling the crystals in a Teflon well cell;
3) cleaning the Teflon cell twice with distilled water, then adding about 300 μL of sterilized water, and putting into a 5% CO2 incubator at 37° C.;
as §2, §5
Experimental Steps for Effects of Cardiovascular Stimulating Drug Isoprenaline (ISO) and Inhibitory Drug Verapamil (VRP) on Traction Force of H9C2 Rat Cardiomyocytes
Take four Teflon well cells, two identical 9 MHz AT-cut gold electrode crystals and two identical 9 MHz BT-cut gold electrode crystals. […]

The test system of experiment [6] is human umbilical vein endothelial cells. Kind of experiment: Double resonator QCM cell traction force of HUVECs on KRGD or fibronectin modified crystals under blebbistatin or nocodazole. Conditions: 20,000 HUVECs. The protocol:
as §3, §4
2) dripping 1 drop of Piranha solution (80° C. 1:3 (v:v) 30% H2O2:H2SO4) to the quartz crystal gold electrode for treating 30 s, rinsing with Millipore water and anhydrous ethanol, blowing with nitrogen, and repeating 3 times. […] Adding 20,000 HUVEC or H9C2 cells, and starting QCM for monitoring; 8) collecting the medium after the experiment, gently wash with PBS, adding trypsin for digestion, and measuring the cells in the collected fraction with a cytometer; and 9) Quantitatively estimating the dynamic change ΔS in the cell traction force during the cell adhesion process according to the frequency shifts Δft^AT and Δft^BT of the AT-cut and BT-cut quartz crystals modified with the same concentration of RGD or fibronectin at the time t based on formula (2). […]

The mark [7] stands for this setting: electrode modified at 30 μg/mL, 40 μg/mL FN.

For the compound `O=C(O)CN(CCOCCOCCN(CC(=O)O)CC(=O)O)CC(=O)O` [EGTA], the “cell traction force in the initial phase” value in experiment [1] (1 mM EGTA) was “did not decrease but increase slightly”. Besides, the “cell generated force with the increase of EGTA time” value in experiment [1] (10 mM EGTA) is reported as “decreases”; in experiment [1] (50 mM EGTA, compared with 10 mM), “decreases more quickly”. The “overall cell traction force” value in experiment [1] (after different concentrations of EGTA (1, 10, 50 mM) are added) is “shows a tendency to decrease”. Moreover, the cell spreading area entry in experiment [2] was “became smaller”.

Turning to fibronectin [FN], the “cell traction force ΔS (sign)” value in experiment [3] (20,000 HUVECs, gold electrode modified with FN, DMEM with 2% fetal bovine serum) is recorded as “positive”. For the same compound, the “cell traction force, compared among FN concentrations” value in experiment [3] (electrode modified at 10 μg/mL FN) was “close and the least”. Moreover, in experiment [3] (electrode modified at 20 μg/mL FN, tested 0, 10, 20, 30, 40, 50 μg/mL), the “ΔS, compared among FN concentrations” value is “maximum and stable”. Further, in experiment [3] (setting [7]), the “QCM frequency shift and dynamic resistance change responses, compared among FN concentrations” value is reported as “medium”; the “ΔS response over time” value is “increases fastest at the beginning, but fluctuates with time and attenuates to some extent”. For the same compound, in experiment [3] (electrode modified at 50 μg/mL FN), the “cell traction force, compared among FN concentrations” value was “close and the least”.

For `C[C@@H](N)[C@H]1CC[C@H](C(=O)Nc2ccncc2)CC1` [Y-27632], in experiment [4] (0.5 μM Y-27632), the cell traction force result is “decreases”, the dynamic resistance entry is listed as “decreases” and the “frequency shift of the crystals” value is recorded as “decreases”.

Take `COc1ccc(CCN(C)CCCC(C#N)(c2ccc(OC)c(OC)c2)C(C)C)cc1OC` (stereo not shown) [VRP, verapamil]: in experiment [5] (VRP final concentration 25 nM), the “QCM frequency f of AT-cut and BT-cut crystals” value is listed as “increased”; the “cell traction force ΔS” value is “increases and changes positively”; the “dynamic resistance R of AT-cut and BT-cut crystals” value is listed as “decreased”.

On to thrombin, for which, in experiment [4] (0.1 unit/mL thrombin), the cell traction force result is listed as “increases”, the dynamic resistance result is recorded as “increases slightly” and the “frequency shift of the crystals” value is reported as “decreases”.

On to `Cc1ccc2c(c1)C(=O)C1(O)CCN(c3ccccc3)C1=N2` (stereo not shown) [blebbistatin], for which the “cell traction force ΔS” value in experiment [6] (crystals modified at 50 μg/mL KRGD, 1.22 μM blebbistatin) is “decreases”.

As for `COC(=O)Nc1nc2ccc(C(=O)c3cccs3)cc2[nH]1` [nocodazole], the “cell traction force ΔS” value in experiment [6] (crystals modified at 20 μg/mL fibronectin, 0.5 μM nocodazole) is “increases at the beginning and then decreases”.

For the compound `CC(C)NCC(O)c1ccc(O)c(O)c1` (stereo not shown) [ISO, isoprenaline], in experiment [5] (ISO final concentration 125 nM), the “QCM frequency f of AT-cut and BT-cut crystals” value is recorded as “decreased”; the “cell traction force ΔS” value was “decreases and changes negatively”; the “dynamic resistance R of AT-cut and BT-cut crystals” value is “increased”.
